Results on 11 molecules are retold here after ChEMBL document CHEMBL4004825 (J Med Chem, 2017).

SMILES strings stand for the structures. The source made the active and inactive calls. The calls are words filed in the database; no cut-off is given here.

Data set [1] addresses T1, Tyrosine-protein kinase JAK3 (Homo sapiens, UniProt P52333).
T1 sequence (P52333 whole entry): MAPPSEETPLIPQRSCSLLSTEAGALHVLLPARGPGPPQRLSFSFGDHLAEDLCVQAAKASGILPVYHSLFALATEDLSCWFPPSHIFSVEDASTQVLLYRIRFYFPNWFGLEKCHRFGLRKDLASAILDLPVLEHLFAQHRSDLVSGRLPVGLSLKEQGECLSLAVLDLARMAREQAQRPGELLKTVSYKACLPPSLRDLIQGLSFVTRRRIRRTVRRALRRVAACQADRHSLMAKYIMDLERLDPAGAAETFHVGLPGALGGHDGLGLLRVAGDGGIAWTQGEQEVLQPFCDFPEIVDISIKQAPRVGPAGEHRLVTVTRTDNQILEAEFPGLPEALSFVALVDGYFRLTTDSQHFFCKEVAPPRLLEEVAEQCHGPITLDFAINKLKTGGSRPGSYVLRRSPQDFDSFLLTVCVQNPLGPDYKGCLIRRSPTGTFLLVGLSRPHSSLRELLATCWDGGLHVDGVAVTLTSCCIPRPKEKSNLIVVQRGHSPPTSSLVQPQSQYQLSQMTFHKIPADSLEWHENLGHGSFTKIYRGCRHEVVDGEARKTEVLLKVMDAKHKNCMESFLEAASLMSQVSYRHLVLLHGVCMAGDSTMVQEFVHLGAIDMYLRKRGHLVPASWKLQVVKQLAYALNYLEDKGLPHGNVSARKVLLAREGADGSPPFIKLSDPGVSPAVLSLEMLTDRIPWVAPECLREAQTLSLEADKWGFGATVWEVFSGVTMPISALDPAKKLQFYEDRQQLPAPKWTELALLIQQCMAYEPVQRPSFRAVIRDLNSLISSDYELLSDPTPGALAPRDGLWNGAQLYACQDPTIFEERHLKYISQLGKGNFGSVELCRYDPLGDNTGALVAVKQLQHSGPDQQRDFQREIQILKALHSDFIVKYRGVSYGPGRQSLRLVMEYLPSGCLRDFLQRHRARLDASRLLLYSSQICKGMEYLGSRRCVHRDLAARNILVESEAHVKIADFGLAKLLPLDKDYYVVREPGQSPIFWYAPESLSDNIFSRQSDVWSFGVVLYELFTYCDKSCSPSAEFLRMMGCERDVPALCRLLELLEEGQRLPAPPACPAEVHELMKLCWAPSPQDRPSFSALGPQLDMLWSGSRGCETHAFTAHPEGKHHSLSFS
As to the kind of experiment: Inhibition of recombinant human GST-tagged cytoplasmic JAK3 catalytic domain (781 to 1124 residues) expressed in baculovirus expression system using FITC-KGGEEEEYFELVKK as substrate in presence of 4 uM ATP by microfluidic assay.

The target of data set [2] is T1, Tyrosine-protein kinase JAK3. As to the kind of experiment: Inhibition of recombinant human GST-tagged cytoplasmic JAK3 catalytic domain (781 to 1124 residues) expressed in baculovirus expression system using FITC-KGGEEEEYFELVKK as substrate in presence of 1 mM ATP by microfluidic assay.
The target of data set [3] is T2, Tyrosine-protein kinase JAK1 (Homo sapiens, UniProt P23458). The data set is described as follows: Inhibition of recombinant human GST-tagged cytoplasmic JAK1 catalytic domain (866 to 1154 residues) expressed in baculovirus expression system using 5FAM-KKSRGDYMTMQID as substrate in presence of 40 uM ATP by microfluidic assay.
In data set [4] the target is T2, Tyrosine-protein kinase JAK1. The data set is described as follows: Inhibition of recombinant human GST-tagged cytoplasmic JAK1 catalytic domain (866 to 1154 residues) expressed in baculovirus expression system using 5FAM-KKSRGDYMTMQID as substrate in presence of 1 mM ATP by microfluidic assay.
Data set [5] concerns the target Tyrosine-protein kinase JAK2 (Homo sapiens, UniProt O60674). As to the kind of experiment: Inhibition of recombinant human GST-tagged cytoplasmic JAK2 catalytic domain (809 to 1153+9 residues) expressed in baculovirus expression system using FITC-KGGEEEEYFELVKK as substrate in presence of 1 mM ATP by microfluidic assay.
For data set [6], the target named is Non-receptor tyrosine-protein kinase TYK2 (Homo sapiens, UniProt P29597). The data set is described as follows: Inhibition of recombinant human His-tagged TYK2 expressed in baculovirus infected sf21 cells using 5FAM-KKSRGDYMTMQID as substrate in presence of 1 mM ATP by microfluidic assay.
Data set [7] in a line: Stability in human whole blood assessed as GST-mediated clearance by measuring half-life at 1 uM by LC-MS/MS analysis. Type of data set: ADME.
Data set [8] concerns Mus musculus. The data set is described as follows: Anti-inflammatory activity in sheep RBC-sensitized BALB/c mouse model of delayed-type hypersensitivity assessed as reduction in right hind foot pad thickness at 30 mg/kg, po administered twice daily for 7 days pretreated for 1 day followed by SRBC challenge and subsequent compound treatment for 6 days measured 24 hrs post SRBC rechallenge on day 6. The data set is classed as functional, organism-based.

In data set [9] the target is T1, Tyrosine-protein kinase JAK3. As to the kind of experiment: Inhibition of JAK3 in human whole blood assessed as inhibition of IL-15 induced STAT5 phosphorylation preincubated for 45 mins followed by IL-15 addition and measured after 15 mins by Alexa Fluor 647 staining based flow cytometric analysis. For orientation: A flow cytometer gives signals particle by particle.

Data set [10] has the same target. As to the kind of experiment: Inhibition of JAK3 in human PBMC assessed as inhibition of IL-15 induced STAT5 phosphorylation preincubated for 75 mins followed by IL-15 addition and measured after 15 mins by Alexa Fluor 647 staining based flow cytometry.
Data set [11] in a line: Stability in human liver microsomes. Type of data set: ADME, microsome. The settings on record: read-out: Stability. On the technique in general: Microsomes from liver hold many membrane-bound enzymes, among them those of drug oxidation.
Data set [12] can be described thus: Stability in rat liver microsomes. The data set is classed as ADME, microsome. The settings on record: read-out: Stability.
A short description of data set [13]: Permeability in RRCK cells. The data set is classed as ADME, cell-based, Canis lupus familiaris, MDCKII-LE. The settings on record: dog, MDCK; read-out: permeability.
The nature of data set [14]: Half-life in human whole blood at 1 uM by LC-MS/MS analysis. The data set is classed as ADME.
The nature of data set [15]: Half-life in Sprague-Dawley rat blood at 1 uM by LC-MS/MS analysis. The data set is classed as ADME, tissue-based.
Data set [16] in a line: Clearance in rat in absence of CYP450 inhibitor ABT. Type of data set: ADME.
Data set [17] can be described thus: Clearance in rat in presence of CYP450 inhibitor ABT. Type of data set: ADME. The settings on record: with ABT (CYP450 inhibitor).
The test system of data set [18] is Mus musculus. The data set is described as follows: Anti-inflammatory activity in po dosed sheep RBC-sensitized BALB/c mouse model of delayed-type hypersensitivity assessed as reduction in right hind foot pad thickness administered once daily for 7 days pretreated for 1 day followed by SRBC challenge and subsequent compound treatment for 6 days measured 24 hrs post SRBC rechallenge on day 6. The data set is classed as functional, organism-based.

Non-receptor tyrosine-protein kinase TYK2, sequence (P29597 whole entry): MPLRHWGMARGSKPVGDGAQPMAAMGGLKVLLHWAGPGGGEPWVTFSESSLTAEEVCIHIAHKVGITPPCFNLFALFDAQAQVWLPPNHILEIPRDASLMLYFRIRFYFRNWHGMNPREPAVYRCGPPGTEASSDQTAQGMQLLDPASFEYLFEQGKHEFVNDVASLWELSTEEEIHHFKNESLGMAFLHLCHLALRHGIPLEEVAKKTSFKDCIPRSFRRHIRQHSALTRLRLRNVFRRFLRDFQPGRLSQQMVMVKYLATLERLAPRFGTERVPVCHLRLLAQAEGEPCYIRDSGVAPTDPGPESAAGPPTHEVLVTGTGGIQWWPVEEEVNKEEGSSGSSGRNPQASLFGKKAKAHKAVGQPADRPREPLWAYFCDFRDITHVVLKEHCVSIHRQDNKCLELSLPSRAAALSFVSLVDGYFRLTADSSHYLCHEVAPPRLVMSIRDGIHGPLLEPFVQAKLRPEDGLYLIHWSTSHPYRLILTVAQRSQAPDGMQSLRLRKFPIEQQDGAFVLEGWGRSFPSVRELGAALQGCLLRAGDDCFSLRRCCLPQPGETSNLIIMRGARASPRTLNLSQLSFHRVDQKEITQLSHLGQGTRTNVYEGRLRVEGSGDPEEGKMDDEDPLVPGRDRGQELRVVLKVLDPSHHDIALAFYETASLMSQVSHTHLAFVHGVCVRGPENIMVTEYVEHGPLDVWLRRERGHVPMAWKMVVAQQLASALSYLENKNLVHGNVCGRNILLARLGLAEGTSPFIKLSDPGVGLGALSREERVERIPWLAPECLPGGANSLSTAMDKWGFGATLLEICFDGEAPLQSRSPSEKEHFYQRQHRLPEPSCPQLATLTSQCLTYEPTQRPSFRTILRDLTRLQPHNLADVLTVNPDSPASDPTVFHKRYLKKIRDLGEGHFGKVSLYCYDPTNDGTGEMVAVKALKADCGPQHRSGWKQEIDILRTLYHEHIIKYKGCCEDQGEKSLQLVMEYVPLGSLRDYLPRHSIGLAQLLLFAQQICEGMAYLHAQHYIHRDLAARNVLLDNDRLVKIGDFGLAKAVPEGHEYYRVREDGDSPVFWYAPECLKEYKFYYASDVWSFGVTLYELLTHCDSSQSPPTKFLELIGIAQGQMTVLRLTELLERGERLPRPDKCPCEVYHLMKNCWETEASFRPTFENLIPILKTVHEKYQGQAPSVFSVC
T2 sequence (P23458 whole entry, the tested form may be a part): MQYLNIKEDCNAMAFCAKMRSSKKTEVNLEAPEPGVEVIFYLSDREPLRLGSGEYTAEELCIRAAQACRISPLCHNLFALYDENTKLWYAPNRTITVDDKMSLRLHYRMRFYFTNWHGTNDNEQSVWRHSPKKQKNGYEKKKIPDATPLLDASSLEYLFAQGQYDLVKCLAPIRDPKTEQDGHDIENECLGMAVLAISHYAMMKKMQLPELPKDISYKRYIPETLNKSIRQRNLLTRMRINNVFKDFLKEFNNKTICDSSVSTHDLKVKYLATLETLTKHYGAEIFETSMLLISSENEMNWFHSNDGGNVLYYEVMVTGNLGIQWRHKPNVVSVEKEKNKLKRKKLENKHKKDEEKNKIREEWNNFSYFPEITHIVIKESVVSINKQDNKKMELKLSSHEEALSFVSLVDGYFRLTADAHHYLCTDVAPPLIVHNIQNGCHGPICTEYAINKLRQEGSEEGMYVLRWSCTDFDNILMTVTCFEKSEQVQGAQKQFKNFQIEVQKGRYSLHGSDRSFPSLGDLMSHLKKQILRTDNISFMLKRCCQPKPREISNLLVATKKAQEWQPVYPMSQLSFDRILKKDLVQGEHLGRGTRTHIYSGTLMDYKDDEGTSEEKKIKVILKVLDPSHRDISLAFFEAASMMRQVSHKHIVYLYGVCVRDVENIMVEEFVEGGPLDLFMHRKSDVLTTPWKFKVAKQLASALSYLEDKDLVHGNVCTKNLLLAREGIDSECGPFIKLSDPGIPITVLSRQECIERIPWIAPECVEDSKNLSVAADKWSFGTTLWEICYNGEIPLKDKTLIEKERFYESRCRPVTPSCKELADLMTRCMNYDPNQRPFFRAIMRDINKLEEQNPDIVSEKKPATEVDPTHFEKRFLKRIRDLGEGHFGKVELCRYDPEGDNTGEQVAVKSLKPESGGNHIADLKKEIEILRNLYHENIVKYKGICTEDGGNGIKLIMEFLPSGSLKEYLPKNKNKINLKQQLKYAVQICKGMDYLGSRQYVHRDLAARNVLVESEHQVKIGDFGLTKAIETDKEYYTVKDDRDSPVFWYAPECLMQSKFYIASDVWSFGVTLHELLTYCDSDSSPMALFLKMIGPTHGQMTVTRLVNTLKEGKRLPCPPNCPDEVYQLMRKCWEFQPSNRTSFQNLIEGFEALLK
Tyrosine-protein kinase JAK2, sequence (O60674 whole entry, the tested form may be a part): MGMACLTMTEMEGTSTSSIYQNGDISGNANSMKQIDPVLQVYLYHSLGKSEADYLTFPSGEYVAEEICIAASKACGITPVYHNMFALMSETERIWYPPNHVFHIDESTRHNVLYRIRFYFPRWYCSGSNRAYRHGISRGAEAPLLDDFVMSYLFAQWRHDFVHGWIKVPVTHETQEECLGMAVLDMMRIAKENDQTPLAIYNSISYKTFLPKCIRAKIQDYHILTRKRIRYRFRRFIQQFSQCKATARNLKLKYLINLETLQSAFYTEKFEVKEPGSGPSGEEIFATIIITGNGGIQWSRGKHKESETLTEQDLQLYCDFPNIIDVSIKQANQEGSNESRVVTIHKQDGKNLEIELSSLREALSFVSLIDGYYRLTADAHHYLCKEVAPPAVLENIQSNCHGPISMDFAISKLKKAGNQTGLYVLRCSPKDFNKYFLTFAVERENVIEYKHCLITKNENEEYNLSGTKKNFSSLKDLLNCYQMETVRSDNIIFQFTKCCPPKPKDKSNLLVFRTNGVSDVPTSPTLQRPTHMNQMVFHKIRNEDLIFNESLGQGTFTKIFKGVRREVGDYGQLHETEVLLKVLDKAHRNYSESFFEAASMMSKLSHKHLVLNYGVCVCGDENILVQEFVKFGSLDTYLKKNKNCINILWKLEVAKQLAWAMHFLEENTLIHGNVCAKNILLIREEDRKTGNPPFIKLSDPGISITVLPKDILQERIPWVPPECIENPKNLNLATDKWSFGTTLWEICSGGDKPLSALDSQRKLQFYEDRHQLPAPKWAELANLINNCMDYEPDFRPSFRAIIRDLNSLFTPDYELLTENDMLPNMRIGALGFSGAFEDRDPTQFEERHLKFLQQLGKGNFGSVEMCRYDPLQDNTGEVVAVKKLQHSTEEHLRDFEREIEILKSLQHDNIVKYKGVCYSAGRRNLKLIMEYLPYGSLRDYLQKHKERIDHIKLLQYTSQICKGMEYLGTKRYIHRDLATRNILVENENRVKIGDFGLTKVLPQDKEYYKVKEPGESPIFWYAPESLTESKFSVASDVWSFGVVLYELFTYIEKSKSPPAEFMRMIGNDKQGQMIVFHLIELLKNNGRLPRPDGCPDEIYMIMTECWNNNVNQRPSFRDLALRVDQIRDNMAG

`C=CC(=O)N1CCC[C@@H](N(C)c2ncnc3[nH]ccc23)C1`: the IC50 (usually the concentration that inhibits the measured activity by half) in data set [1] was 18 nM; in data set [2], 3840 nM; in data set [3], 1150 nM; in data set [4], 7820 nM; in data set [5], over 10000 nM; in data set [6] it was over 10000 nM.
Consider `C=CC(=O)N1C[C@@H](C)C[C@@H](Nc2ncnc3[nH]ccc23)C1` (single isomer, unassigned), for which the half-life (as a rule, how long it takes for the measured level to halve) at 1 µM in data set [7] was over 4.17 h.
Consider `C[C@@H]1CCN(C(=O)CC#N)C[C@@H]1N(C)c1ncnc2[nH]ccc12`, for which the result in data set [8] was Active.
On to `C=CC(=O)Nc1cccc(-c2ncnc3[nH]ccc23)c1`, for which the IC50 in data set [9] was 2280 nM; in [1] it was 0.3 nM; in data set [2], 29 nM; in [3] it was 966 nM; in [4], 8710 nM; in data set [5] it was over 10000 nM. In addition, the values for the IC50 in data set [6] and in data set [10] were over 10000 nM and 32 nM, respectively.
Take `C/C=C/C(=O)N1CCC[C@@H](Nc2ncnc3[nH]ccc23)C1`: the IC50 in data set [1] was 1610 nM; in data set [2], over 10000 nM; in [3], 2290 nM; in [4], over 10000 nM; in data set [5] it was over 10000 nM; in [6] it was over 10000 nM.
Consider `C=CC(=O)N1CCC[C@@H](Nc2ncnc3[nH]ccc23)[C@H]1C` (racemic), for which, in [2], the IC50 was over 1000 nM. Moreover, the half-life at 1 µM in data set [7] is over 6 h.
As to `C=CC(=O)N1CCC[C@@H](Nc2ncnc3[nH]ccc23)C1`, the IC50 in data set [9] is 580 nM; in [2] it was 56 nM; in data set [3], 1400 nM; in data set [4], over 10000 nM; in [5], over 10000 nM; in data set [6] it was over 10000 nM. For the same molecule, in [10], the IC50 is 107 nM. Moreover, the microsomal CLint in data set [11] is 8 µL/min/mg; in [12] it was under 15 µL/min/mg. Further, in data set [13], the Papp is 8 ×10⁻⁶ cm/s. For the same molecule, the half-life at 1 µM in data set [14] stood at 5.53 h; in data set [15] it was 1.63 h.
Consider `C=CC(=O)N1CC[C@H]2CCN(c3ncnc4[nH]ccc34)[C@H]2C1`, for which the IC50 in [3] was 984 nM; in data set [4], over 10000 nM; in [5] it was over 10000 nM; in [6], over 10000 nM. In addition, the results for the microsomal CLint in data set [11] and in [12] were 12.2 µL/min/mg and 70 µL/min/mg, respectively. In data set [13], the Papp was 20 ×10⁻⁶ cm/s. For the same molecule, the figures for the half-life at 1 µM in data set [14] and in [15] were 3.2 h and 2.73 h, respectively. Also, the clearance (in general, the rate of elimination divided by the concentration) in data set [16] came to 109 mL/min/kg; in data set [17], 81 mL/min/kg. Further, the Activity result in data set [18] is “Dose-dependent effect”.
Consider `CC(=O)N1CC[C@H]2CCN(c3ncnc4[nH]ccc34)[C@H]2C1`, for which the IC50 in data set [1] was 372 nM; in data set [2], over 10000 nM; in [3] it was 863 nM; in data set [4], over 10000 nM; in data set [5], over 10000 nM; in data set [6], over 10000 nM. Besides, the microsomal CLint in data set [11] is under 8 µL/min/mg; in data set [12], 25 µL/min/mg. The Papp in data set [13] was found to be 16 ×10⁻⁶ cm/s. Besides, the clearance in [16] was 76 mL/min/kg; in data set [17], 10 mL/min/kg.
With `C=CC(=O)N1CC[C@@H](C)[C@@H](N(C)c2ncnc3[nH]ccc23)C1`, the IC50 in [2] is 1930 nM; in [3], 274 nM; in [4], 988 nM; in data set [5], 2030 nM; in data set [6], over 10000 nM.
For `C=CC(=O)N1CC[C@H](C)[C@@H](Nc2ncnc3[nH]ccc23)C1`, the half-life at 1 µM in data set [7] is over 5 h.
